Data as given in patent US20150105252A1, “SUBSTITUTED PYRAZOLES AS HERBICIDES” (E I DU PONT DE NEMOURS AND COMPANY, priority 2013, published 2015).

Tests used:
crabgrass, large [1] = assay: Test C preemergence; assay type: in vivo, Digitaria sanguinalis; conditions: for Crabgrass, Large plant response rating: scale 0 to 100 (0 no effect, 100 complete control)
Outline: (§1)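 In this greenhouse assay, seeded soil (loam plus sand) or emerged seedlings in peat-vermiculite medium were treated with formulated compound. Roughly two weeks later (13–15 days), each species was scored visually relative to controls, from 0 for no effect to 100 for complete control.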

morningglory = assay: Test A preemergence; assay type: in vivo, Ipomoea spp.; conditions: preemergence
Outline: (§2)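 Growth medium: loam soil blended with sand. Preemergence treatment used a directed soil spray right after planting; postemergence treatment targeted seedlings at one to two leaves (2–10 cm height). Response was judged by eye relative to untreated plants about 10 days later on a 0–100 control scale.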

pigweed [2] = assay: Test A postemergence; assay type: in vivo, Amaranthus retroflexus
Outline: as §2

pigweed [3] = assay: Test A preemergence; assay type: in vivo, Amaranthus retroflexus; conditions: preemergence
Outline: as §2

oilseed rape = assay: Test C preemergence; assay type: in vivo, Brassica napus; conditions: for Oilseed Rape plant response rating: scale 0 to 100 (0 no effect, 100 complete control)
Outline: as §1

galium = assay: Test C preemergence; assay type: in vivo, Galium aparine; conditions: for Galium plant response rating: scale 0 to 100 (0 no effect, 100 complete control)
Outline: as §1

ducksalad = assay: Test B flood; assay type: in vivo, Heteranthera limosa; conditions: 250 g ai/ha, visual rating on 0 to 100 scale (0 no effect, 100 complete control), 13 to 15 days
Outline: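 Two-leaf-stage plants, pots flooded (3 cm above soil) and treated through the water, which stayed at that depth. After 13–15 days in greenhouse conditions, visual assessment versus controls: 0 is no effect, 100 complete control, dash means no result.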

crabgrass, large [4] = assay: Test A postemergence; assay type: in vivo, Digitaria sanguinalis
Outline: as §2

barnyardgrass = assay: Test A postemergence; assay type: in vivo, Echinochloa crus-galli
Outline: as §2

blackgrass = assay: Test C preemergence; assay type: in vivo, Alopecurus myosuroides; conditions: for Blackgrass plant response rating: scale 0 to 100 (0 no effect, 100 complete control)
Outline: as §1

soybean = assay: Test C preemergence; assay type: in vivo, Glycine max; conditions: for Soybean plant response rating: scale 0 to 100 (0 no effect, 100 complete control)
Outline: as §1

wheat = assay: Test C preemergence; assay type: in vivo, Triticum aestivum; conditions: for Wheat plant response rating: scale 0 to 100 (0 no effect, 100 complete control)
Outline: as §1

johnsongrass = assay: Test C preemergence; assay type: in vivo, Sorghum halepense; conditions: for Johnsongrass plant response rating: scale 0 to 100 (0 no effect, 100 complete control)
Outline: as §1

corn = assay: Test A preemergence; assay type: in vivo, Zea mays; conditions: preemergence
Outline: as §2

[5] = preemergence, 31 g ai/ha, visual rating, 13 to 15 days
[6] = preemergence, 62 g ai/ha, 13 to 15 days
[7] = preemergence, 125 g ai/ha, 13 to 15 days, scale 0 to 100, 0 = no effect, 100 = complete control
[8] = 125 g ai/ha, visual injury, 0 to 100 scale, approx. 10 days
[9] = 500 g ai/ha, visual injury after approx. 10 days, 0 to 100 scale (0 no effect, 100 complete control)
[10] = Postemergence, 500 g ai/ha, 0 to 100 scale (0 no effect, 100 complete control)
[11] = postemergence, 125 g ai/ha, about 10 days, visual rating on 0 to 100 scale (0 no effect, 100 complete control)

CCCNC(=O)c1cc(CC)n(Cc2ccnc(OC(F)F)c2)n1 [Compound 132]
Plant response rating (scale of 0 to 100), Crabgrass, Large (crabgrass, large [1]; Preemergence, 250 g ai/ha): 100 | Crabgrass, Large plant response rating (crabgrass, large [1]; [5]): 98 | Crabgrass, Large plant response rating (crabgrass, large [1]; [6]): 100 | Plant response rating, Crabgrass, Large (crabgrass, large [1]; [7]): 100 | Morningglory plant response rating (morningglory; [8]): 100 | Morningglory plant response rating (morningglory; [9]): 100 | Pigweed plant response rating (pigweed [2]; [10]): 100 | Pigweed plant response rating (pigweed [2]; [11]): 90 | Pigweed plant response rating (pigweed [3]; [8]): 100 | Pigweed plant response rating (pigweed [3]; [9]): 100 | Plant response rating (scale of 0 to 100), Oilseed Rape (oilseed rape; Preemergence, 250 g ai/ha): 100 | Oilseed Rape plant response rating (oilseed rape; [5]): 75 | Oilseed Rape plant response rating (oilseed rape; [6]): 98 | Plant response rating, Oilseed Rape (oilseed rape; [7]): 100 | Plant response rating (scale of 0 to 100), Galium (galium; Preemergence, 250 g ai/ha): 100 | Galium plant response rating (galium; [5]): 98 | Galium plant response rating (galium; [6]): 100 | Plant response rating, Galium (galium; [7]): 100 | Plant response rating, Ducksalad (ducksalad): 100 | Crabgrass, Large plant response rating (crabgrass, large [4]; [10]): 90 | Crabgrass, Large plant response rating (crabgrass, large [4]; [11]): 90 | Barnyardgrass plant response rating (barnyardgrass; [10]): 90 | Barnyardgrass plant response rating (barnyardgrass; [11]): 90 | Plant response rating (scale of 0 to 100), Blackgrass (blackgrass; Preemergence, 250 g ai/ha): 98 | Blackgrass plant response rating (blackgrass; [5]): 95 | Blackgrass plant response rating (blackgrass; [6]): 98 | Plant response rating, Blackgrass (blackgrass; [7]): 98 | Plant response rating (scale of 0 to 100), Soybean (soybean; Preemergence, 250 g ai/ha): 95 | Soybean plant response rating (soybean; [5]): 35 | Soybean plant response rating (soybean; [6]): 75 | Plant response rating, Soybean (soybean; [7]): 90 | Plant response rating (scale of 0 to 100), Wheat (wheat; Preemergence, 250 g ai/ha): 95 | Wheat plant response rating (wheat; [5]): 15 | Wheat plant response rating (wheat; [6]): 15 | Plant response rating, Wheat (wheat; [7]): 70 | Plant response rating (scale of 0 to 100), Johnsongrass (johnsongrass; Preemergence, 250 g ai/ha): 100 | Johnsongrass plant response rating (johnsongrass; [5]): 25 | Johnsongrass plant response rating (johnsongrass; [6]): 90 | Plant response rating, Johnsongrass (johnsongrass; [7]): 100 | Corn plant response rating (corn; [8]): 40 | Corn plant response rating (corn; [9]): 80
